# Results reported in PMC9818021, “Targets, Mechanisms and Cytotoxicity of Half-Sandwich Ir(III) Complexes Are Modulated by Structural Modifications on the Benzazole Ancillary Ligand” (Cancers, 2022).
# Read-outs that look alike come from different tables or passages of the source.
# Columns and labels:
# [1] = Acid dissociation constants from absorbance vs pH; format: physicochemical; conditions: for pKa: free ligand; for pKa1: water dissociation to give the hydroxo complex; for pKa2: NH dissociation to give the N anion
# Experimental: The pH measurements were carried out with a Metrohm 16 DMS Titrino pH meter fitted out with a combined glass electrode with a 3 M KCl solution as a liquid junction. HClO4 and NaOH solution were used to adjust the pH.
# (§1) The UV-vis measurements were performed with a Hewlett-Packard 8453A (Agilent Technologies, Palo Alto, CA, USA) photodiode array spectrophotometer with a Peltier temperature control system. Titrations were carried out at 25 °C by adding increasing amounts of DNA solution to the iridium complex solution. The pKa values were measured by analysing the absorbance change of iridium complex solutions recorded at different pH values. The melting experiments were carried out using a DNA solution varying the CIr-complex/CDNA (CD/CP) ratio from 0 to 1, keeping CP constant and recording the absorbance spectra while heating from 25 to 90 °C at 0.3 °C/min.
# Qualitative solubility = format: physicochemical; conditions: 1-2 mg, solvent up to 1 mL
# Experimental: Solubility. The solubility of the complexes was qualitatively assessed. Different solvents were added drop-by-drop while shaking to a small amount of complex (around 1–2 mg) in a vial until the solvent added exceeded 1 mL. Afterwards, it was checked if the solid was or not completely dissolved and/or if the solution got coloured.
# [2] = tested on: A2780cis (ovarian, acquired resistance to cisplatin); experiment: MTT cytotoxicity assay; format: cell-based, human; conditions: A2780cis, 48 h
# Experimental: (§2) Cell culture. Epithelial ovarian carcinoma cells (A2780) that acquired resistance to cisplatin epithelial ovarian carcinoma cells (A2780cis), colon adenocarcinoma cells (SW480) and epithelial lung adenocarcinoma cells (A549) were provided by Sigma Aldrich. A549 and SW480 cells were grown in Dulbecco′s Modified Eagle′s Medium (DMEM), supplemented with 10% Fetal Bovine Serum (FBS) and 1% penicillin, streptomycin and 1% glutamine for A549 and 1% amphotericin B for SW480. The A2780 and A2780cis were grown in RPMI 1640 supplemented with 10% Fetal Bovine Serum (FBS), 1% glutamine and 1% penicillin, streptomycin and amphotericin B. All cells were incubated in a humidified incubator at 37 °C under a 5% CO2 atmosphere and grown in 100 mm culture dishes to approximately 70–80% confluence. For subculturing, cells were detached with Trypsin-EDTA (Sigma). A549-gal were derived from A549 cultured in glucose-free medium supplemented with 10 mM galactose (Sigma) for at least 10 passes.
# (§3) Cytotoxicity. MTT Assay and IC50 estimation. The cytotoxicity of 1[C,NH-Cl], 2[C,NMe-Cl], 3[N,NH-Cl]Cl, 4[N,NMe-Cl]Cl, 5[CNH2,NH-Cl]Cl, 6[CNH2,S-Cl]Cl, 7[CO,NH-Cl] and 8[CO,S-Cl] in A2780, A2780cis, SW480 and A549 carcinoma cells was evaluated by the MTT colorimetric assay. Cells were seeded in 96-well plates at 5000 cells per well and incubated at 37 °C, 5% CO2. After 24 h, the medium was removed and replaced with fresh medium with different concentrations of the compounds under study, and they were incubated for 48 h. Final DMSO concentration was kept below 0.7% in wells. For a negative control, one sequence of cells was left untreated and for vehicle control, cells treated with DMSO were included. For cell viability experiments preincubating with NAC (N-Acetyl-L-Cysteine), the cells were pre-treated with NAC, 10 mM for 2 h before the incubation with complex 1[C,NH-Cl] for 24 h. Then, the medium was removed from the wells, and 100 µL MTT (5 mg/mL) was added. After an incubation time of 4 h, 100 μL of solubilizing detergent solution (SDS, 10% in HCL 0.01 M) was added and kept in the incubator overnight. Cell growth inhibition was detected by measuring the absorbance of each well at 595 nm using a BioTek Cytation5 microplate reader. Each test was repeated in quadruplicate in three independent experiments for each cell line. The percentage of survival cells was calculated using absorbance measurements compared with control and the IC50 estimation using Graph Pad Prism version 6.01.
# [3] = tested on: SW480 (colon adenocarcinoma cells); experiment: MTT cytotoxicity assay; format: cell-based, human; conditions: SW480, 48 h
# Experimental: as §2, §3
# [4] = tested on: A2780 (epithelial ovarian carcinoma cells); experiment: MTT cytotoxicity assay; format: cell-based, human; conditions: A2780, 48 h
# Experimental: as §2, §3
# [5] = tested on: A549 (epithelial lung adenocarcinoma cells); experiment: MTT cytotoxicity assay; format: cell-based, human; conditions: A549, 48 h
# Experimental: as §2, §3
# [6] = Aquation/solvolysis kinetics (UV-vis); format: physicochemical
# Experimental: Aquation/solvolysis. Chloride displacement was qualitatively monitored by ^1H-NMR for some of the complexes in DMSO-d6. The replacement of the chloride by a DMSO molecule was observed as some peaks shifted and some new peaks appeared corresponding to the methyl groups of the DMSO molecule. Aquation/solvolysis equilibria were studied by kinetic UV-vis measurements.
# as §1
# The slow kinetic measurements were performed with the previous spectrophotometer while the fast kinetic measurements were performed in a stopped flow Bio-Logic SFM-300 spectrophotometer with an absorbance detection system and dead time below 3 ms. The kinetic curves, obtained averaging out at least five shots, were analysed with the Jandel (AISN software, Mapleton, OR) fitting package.
smiles,measurement,setting,value
c1ccc(-c2nc3ccccc3[nH]2)cc1 [2-phenylbenzimidazole],pKa,"[1]; deprotonation of the pyridine type N atom, read-out: pKa1",5.2 ± 0.1
same,pKa,"[1]; pyrrole type N atom, read-out: pKa2",11.8 ± 0.1
"Cc1c(C)c(C)[c-](C)c1C.Cn1c2[n+](c3ccccc31)[Ir]([OH2+])[n+]1ccccc1-2 [4[N,NMe-H2O]2+]",pKa1,[1],7.48 ± 0.01
"C[S+](C)(=O)[Ir]1[c]2ccccc2-c2[nH]c3ccccc3[n+]21.Cc1c(C)c(C)[c-](C)c1C.[Cl-] [1[C,NH-DMSO]+, [(η^5-Cp*)Ir(DMSO)(κ^2-N,C-pbim)]Cl]",Solubility in water,Qualitative solubility,soluble in dimethyl sulfoxide and water
same,pKa2,[1],8.44 ± 0.03
"C[S+](C)(=O)[Ir]1[O]c2ccccc2-c2[nH]c3ccccc3[n+]21.Cc1c(C)c(C)[c-](C)c1C [7[CO,NH-DMSO]+]",pKa2,[1],9.06 ± 0.06
"N.N.[Cl][Pt][Cl] [cisPt, cisplatin, reference compound]",IC50,[2],60 ± 1 µM
same,IC50,[3],34 ± 1 µM
same,IC50,[4],7 ± 1 µM
same,IC50,[5],33 ± 6 µM
"Cc1c(C)c(C)[c-](C)c1C.[OH2+][Ir]1[n+]2ccccc2-c2[nH]c3ccccc3[n+]21 [3[N,NH-H2O]2+]",pKa2,[1],8.44 ± 0.06
same,pKa1,[1],6.08 ± 0.04
"Cc1c(C)c(C)[c-](C)c1C.[OH2+][Ir]1[NH2+]c2ccccc2-c2[nH]c3ccccc3[n+]21 [5[CNH2,NH-H2O]2+]",pKa2,[1],11.30 ± 0.17
same,pKa1,[1],7.48 ± 0.04
"Cc1c(C)c(C)[c-](C)c1C.Cn1c2[n+](c3ccccc31)[Ir]([S+](C)(C)=O)[c]1ccccc1-2 [2[C,NMe-DMSO]+]",Acid-base equilibrium,[1]; absorbance vs pH,did not exhibit any acid–base equilibrium
"Cc1c(C)c(C)[c-](C)c1C.[OH2+][Ir]1[NH2+]c2ccccc2-c2sc3ccccc3[n+]21 [6[CNH2,S-H2O]2+]",kaq (Cl-complex to H2O-complex),[6]; aqueous solution,(2.12 ± 0.01) × 10^−4 s-1
same,pKa1,[1],8.70 ± 0.04
"C[S+](C)(=O)[Ir]1[O]c2ccccc2-c2sc3ccccc3[n+]21.Cc1c(C)c(C)[c-](C)c1C [8[CO,S-DMSO]+]",kDMSO (Cl-complex to DMSO-complex),[6]; in DMSO,(3.11 ± 0.25) × 10^−4 s-1
